From patent US7772263B2, “Compounds for the treatment of inflammatory disorders” (Schering Corporation, priority 2006, dated 2010)
pKi: −log10 of the molar value.

Biological target: T1, purified catalytic domain of recombinant human TACE (rhTACEc) (Homo sapiens, UniProt P78536, N452Q/S266A)
T1 construct: rhTACEc, Residue 215 to 477 with two mutation (S266A and N4520) and a 6×His tail; 6xHis (C); made in house; host or cells: baculovirus/Hi5 insect cells
Assay: TACE kinetic assay, cleavage of internally quenched fluorescent peptide substrate SPDL-3
Assay type: biochemical
Details: TACE inhibition, Table 1001; read-out: Ki Rating

T1 sequence (P78536 215-477 S266A/N452Q limits assumed): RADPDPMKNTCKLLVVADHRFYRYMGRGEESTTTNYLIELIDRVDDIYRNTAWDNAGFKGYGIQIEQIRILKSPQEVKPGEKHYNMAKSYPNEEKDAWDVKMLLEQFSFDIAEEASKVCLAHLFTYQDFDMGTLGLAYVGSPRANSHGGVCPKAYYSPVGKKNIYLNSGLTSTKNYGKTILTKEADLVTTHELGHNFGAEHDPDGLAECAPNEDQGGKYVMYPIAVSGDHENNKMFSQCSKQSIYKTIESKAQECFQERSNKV

pKi | SMILES
> 8.30 | CNC(=O)c1ccc(C#C[C@]2(CN3Cc4ccc(OC)cc4C3=O)NC(=O)NC2=O)o1 [Compound 954]
> 8.30 | COc1ccc2c(c1)C(=O)N(C[C@@]1(C#Cc3cncc4cccnc34)NC(=O)NC1=O)C2 [Compound 955]
> 8.30 | COC(=O)c1ccc2cncc(C#C[C@]3(CN4Cc5ccc(OC)cc5C4=O)NC(=O)NC3=O)c2n1 [Compound 956]
> 8.30 | COc1ccc2c(c1)C(=O)N(C[C@@]1(C#Cc3cncc4ccc(C(N)=O)nc34)NC(=O)NC1=O)C2 [Compound 957]
> 8.30 | CNC(=O)c1ccc2cncc(C#C[C@]3(CN4Cc5ccc(OC)cc5C4=O)NC(=O)NC3=O)c2n1 [Compound 958]
> 8.30 | COc1ccc2c(c1)C(=O)N(C[C@@]1(C#Cc3cncc4ccc(C(=O)O)nc34)NC(=O)NC1=O)C2 [Compound 959]
> 8.30 | COc1ccc2c(c1)C(=O)N(C[C@@]1(C#Cc3cnc4[nH]cnc4c3)NC(=O)NC1=O)C2 [Compound 960]
> 8.30 | COc1ccc2c(c1)C(=O)N(C[C@@]1(C#Cc3cnc4[nH]c(C)nc4c3)NC(=O)NC1=O)C2 [Compound 961]
> 8.30 | COc1ccc2c(c1)C(=O)N(C[C@@]1(C#Cc3cc4nc[nH]c4nc3C)NC(=O)NC1=O)C2 [Compound 962]
> 8.30 | COc1ccc2c(c1)C(=O)N(CC1(C#Cc3ccc4ncsc4c3)NC(=O)NC1=O)C2 (stereo not shown) [Compound 963]
7.60 to 8.30 | COc1ccc2c(c1)C(=O)N(C[C@]1(C#Cc3ccccc3C(C)C)NC(=O)NC1=O)C2 [Compound 964]
7.00 to 7.60 | COc1ccc2c(c1)C(=O)N(C[C@]1(C#Cc3nc4ccccc4s3)NC(=O)NC1=O)C2 [Compound 965]
7.00 to 7.60 | COc1ccc2c(c1)C(=O)N(C[C@]1(C#Cc3cnc4ncccc4c3)NC(=O)NC1=O)C2 [Compound 966]
7.00 to 7.60 | COc1ccc2c(c1)C(=O)N(C[C@]1(C#Cc3cccc(C(C)C)c3)NC(=O)NC1=O)C2 [Compound 967]
7.00 to 7.60 | COc1ccc2c(c1)C(=O)N(C[C@]1(C#Cc3ccc4ncccc4c3)NC(=O)NC1=O)C2 [Compound 968]
> 8.30 | O=C1NC(=O)C(C#Cc2cc(F)cc(F)c2)(CN2Cc3ccc(OC(F)F)cc3C2=O)N1 (stereo not shown) [Compound 969]
< 7.00 | O=C1NC(=O)[C@](C#Cc2cc(F)cc(F)c2)(CN2Cc3ccc(OC(F)F)cc3C2=O)N1 [Compound 970]
> 8.30 | O=C1NC(=O)C(C#Cc2ccc(F)cc2F)(CN2Cc3ccc(OC(F)F)cc3C2=O)N1 (stereo not shown) [Compound 971]
> 8.30 | COc1ccc2c(c1)C(=O)N(C[C@@]1(C#Cc3ccc(S(=O)(=O)O)cc3)NC(=O)NC1=O)C2 [Compound 973]
> 8.30 | COc1ccc2c(c1)C(=O)N(C[C@@]1(C#Cc3ccccc3)NC(=O)NC1=O)C2 [Compound 1002]
> 8.30 | O=C1NC(=O)[C@@](C#Cc2cc(F)cc(F)c2)(CN2Cc3ccc(Cl)cc3C2=O)N1 [Compound 1003B]
> 8.30 | O=C1NC(=O)[C@@](C#Cc2cccc(F)c2)(CN2Cc3ccc(Cl)cc3C2=O)N1 [Compound 1003C]
> 8.30 | COc1ccc2c(c1)C(=O)N(C[C@@]1(C#Cc3cccnc3C)NC(=O)NC1=O)C2 [Compound 1003]
> 8.30 | O=C1NC(=O)[C@@](C#Cc2cccnc2)(CN2Cc3ccc(Cl)cc3C2=O)N1 [Compound 1004]
> 8.30 | COc1ccc2c(c1)C(=O)N(C[C@@]1(C#Cc3cncc(C)c3)NC(=O)NC1=O)C2 [Compound 1005]

Same assay, conditions: TACE; class letters A-D; read-out: Ki Rating

pKi | SMILES
> 8.30 | COc1ccc2c(c1)C(=O)N(C[C@@]1(C#Cc3cncc(Cl)c3)NC(=O)NC1=O)C2 [Compound 1006]
> 8.30 | COc1ccc2c(c1)C(=O)N(C[C@@]1(C#Cc3ccc(F)cc3C)NC(=O)NC1=O)C2 [Compound 1007]
> 8.30 | COc1ccc2c(c1)C(=O)N(C[C@@]1(C#Cc3ccc4nccnc4c3)NC(=O)NC1=O)C2 [Compound 1008]
> 8.30 | COc1ccc2c(c1)C(=O)N(C[C@@]1(C#Cc3ccc4nc(N)[nH]c4c3)NC(=O)NC1=O)C2 [Compound 1009]
> 8.30 | COc1ccc2c(c1)C(=O)N(C[C@@]1(C#Cc3ccc4c(c3)COC4=O)NC(=O)NC1=O)C2 [Compound 1010]
> 8.30 | COc1ccc2c(c1)C(=O)N(C[C@@]1(C#Cc3ccc4nc(C)[nH]c4c3)NC(=O)NC1=O)C2 [Compound 1011]
> 8.30 | COc1ccc2c(c1)C(=O)N(C[C@@]1(C#Cc3ccc4[nH]cnc4c3)NC(=O)NC1=O)C2 [Compound 1012]
> 8.30 | COc1ccc2c(c1)C(=O)N(C[C@@]1(C#Cc3cnc4[nH]c(=O)[nH]c4c3)NC(=O)NC1=O)C2 [Compound 1013]
> 8.30 | COc1ccc2c(c1)C(=O)N(C[C@@]1(C#Cc3cccc4[nH]ncc34)NC(=O)NC1=O)C2 [Compound 1014]
> 8.30 | COc1ccc2c(c1)C(=O)N(C[C@@]1(C#Cc3cccc4cn[nH]c34)NC(=O)NC1=O)C2 [Compound 1015]
> 8.30 | COc1ccc2c(c1)C(=O)N(C[C@@]1(C#Cc3ccc4[nH]c(=O)sc4c3)NC(=O)NC1=O)C2 [Compound 1016]
> 8.30 | COc1ccc2c(c1)C(=O)N(C[C@@]1(C#Cc3ccc4c(c3)sc(=N)n4C)NC(=O)NC1=O)C2 [Compound 1017]
> 8.30 | COc1ccc2c(c1)C(=O)N(C[C@@]1(C#Cc3cccnc3C#N)NC(=O)NC1=O)C2 [Compound 1018]
> 8.30 | COc1ccc2c(c1)C(=O)N(C[C@@]1(C#Cc3ccc4c(c3)C(=O)NC4=O)NC(=O)NC1=O)C2 [Compound 1019]
< 7.00 | COc1ccc2c(c1)C(=O)N(C[C@]1(C#Cc3ccc(SC(F)(F)F)cc3)NC(=O)NC1=O)C2 [Compound 1036]
> 8.30 | O=C1NC(=O)[C@@](C#Cc2ccc(F)cc2)(CN2Cc3ccc(F)cc3C2=O)N1 [Compound 1037]
> 8.30 | COc1ccc2c(c1)C(=O)N(C[C@@]1(C#Cc3ccc(SC(F)(F)F)cc3)NC(=O)NC1=O)C2 [Compound 1038]
7.60 to 8.30 | COc1ccc2c(c1)C(=O)N(C[C@@]1(C#Cc3ccc(S(=O)(=O)C(F)(F)F)cc3)NC(=O)NC1=O)C2 [Compound 1039]
> 8.30 | COc1ccc2c(c1)C(=O)N(C[C@@]1(C#Cc3cccc(O)c3)NC(=O)NC1=O)C2 [Compound 1040]
> 8.30 | O=C1NC(=O)[C@@](C#Cc2cccc(F)c2)(CN2Cc3ccc(F)cc3C2=O)N1 [Compound 1041]
> 8.30 | O=C1NC(=O)[C@@](C#Cc2ccc(F)cc2F)(CN2Cc3ccc(F)cc3C2=O)N1 [Compound 1042]
> 8.30 | COc1ccc(C#C[C@]2(CN3Cc4ccc(OC)cc4C3=O)NC(=O)NC2=O)cc1 [Compound 1043]
> 8.30 | COc1ccc2c(c1)C(=O)N(C[C@@]1(C#Cc3cccc(C)c3)NC(=O)NC1=O)C2 [Compound 1044]

pKi | SMILES
> 8.30 | COc1ccc2c(c1)C(=O)N(C[C@@]1(C#Cc3ccc(C#N)cc3)NC(=O)NC1=O)C2 [Compound 1045]
> 8.30 | CCOc1cccc(C#C[C@]2(CN3Cc4ccc(OC)cc4C3=O)NC(=O)NC2=O)c1 [Compound 1046]
> 8.30 | COc1ccc2c(c1)C(=O)N(C[C@@]1(C#Cc3ccc4c(c3)CCO4)NC(=O)NC1=O)C2 [Compound 1047]
> 8.30 | COc1ccc2c(c1)C(=O)N(C[C@@]1(C#Cc3cccc(CO)c3)NC(=O)NC1=O)C2 [Compound 1048]
> 8.30 | COc1ccc2c(c1)C(=O)N(C[C@@]1(C#Cc3ccc(Cl)s3)NC(=O)NC1=O)C2 [Compound 1049]
> 8.30 | CCOc1ccc(C#C[C@]2(CN3Cc4ccc(OC)cc4C3=O)NC(=O)NC2=O)cc1 [Compound 1050]
7.00 to 7.60 | O=C1NC(=O)[C@](C#Cc2cccc(F)c2)(CN2Cc3ccc(F)cc3C2=O)N1 [Compound 1051]
7.00 to 7.60 | O=C1NC(=O)[C@](C#Cc2ccc(F)cc2F)(CN2Cc3ccc(F)cc3C2=O)N1 [Compound 1052]
> 8.30 | COc1ccc2c(c1)C(=O)N(C[C@@]1(C#Cc3ccc4oc(C)cc4c3)NC(=O)NC1=O)C2 [Compound 1053]
> 8.30 | COc1ccc2c(c1)C(=O)N(C[C@@]1(C#Cc3cc(Cl)ccc3OC)NC(=O)NC1=O)C2 [Compound 1054]
> 8.30 | COCc1cccc(C#C[C@]2(CN3Cc4ccc(OC)cc4C3=O)NC(=O)NC2=O)c1 [Compound 1055]
> 8.30 | COc1ccc2c(c1)C(=O)N(C[C@@]1(C#Cc3c(OC)ccc4c(C#N)cccc34)NC(=O)NC1=O)C2 [Compound 1056]
> 8.30 | COc1ccc2c(c1)C(=O)N(C[C@@]1(C#Cc3ccc(OC(C)C)cc3)NC(=O)NC1=O)C2 [Compound 1057]
> 8.30 | COc1ccc2c(c1)C(=O)N(C[C@@]1(C#Cc3ccc(OCC4CC4)cc3)NC(=O)NC1=O)C2 [Compound 1058]
> 8.30 | COc1ccc2c(c1)C(=O)N(C[C@@]1(C#Cc3cccc(COCC4CC4)c3)NC(=O)NC1=O)C2 [Compound 1059]
> 8.30 | COc1ccc2c(c1)C(=O)N(C[C@@]1(C#Cc3ccc(C(C)=O)s3)NC(=O)NC1=O)C2 [Compound 1060]
> 8.30 | COc1ccc2c(c1)C(=O)N(C[C@@]1(C#Cc3ccc(C(C)O)s3)NC(=O)NC1=O)C2 (stereo partly shown) [Compound 1061]
> 8.30 | COc1ccc2c(c1)C(=O)N(C[C@@]1(C#Cc3ccccc3C)NC(=O)NC1=O)C2 [Compound 1062]
> 8.30 | COc1ccc2c(c1)C(=O)N(C[C@@]1(C#Cc3cncc(O)c3)NC(=O)NC1=O)C2 [Compound 1063]
> 8.30 | COc1ccc2c(c1)C(=O)N(C[C@@]1(C#Cc3ccc(C#N)s3)NC(=O)NC1=O)C2 [Compound 1064]
> 8.30 | COc1ccc2c(c1)C(=O)N(C[C@@]1(C#Cc3ccc(C(=O)NC4CC4)cc3)NC(=O)NC1=O)C2 [Compound 1065]
< 7.00 | COc1ccc2c(c1)C(=O)N(C[C@]1(C#Cc3cncc(O)c3)NC(=O)NC1=O)C2 [Compound 1066]

Same assay, conditions: rhTACEc 70 pM, 30 μM SPDL-3, 90 min pre-incubation at 25° C.; read-out: Ki (nM), TACE inhibitory activity

Ki [nM] | SMILES
0.12 | COc1ccc2c(c1)C(=O)N(C[C@@]1(C#Cc3ccc4scnc4c3)NC(=O)NC1=O)C2 [Compound 972]
0.11 | COc1ccc2c(c1)C(=O)N(C[C@@]1(C#Cc3cccnc3C)NC(=O)NC1=O)C2 [Compound 1003]
1.33 | COc1ccc2c(c1)C(=O)N(C[C@@]1(C#Cc3ccc4nc(N)[nH]c4c3)NC(=O)NC1=O)C2 [Compound 1009]
